Measured values: PubChem BioAssay (NCI)
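Step 1: Grow cells in 96-well plates. Step 2: Expose to compound for 48 hours at 5 concentrations. Step 3: Interpolate endpoints linearly; if unreached, use highest concentration. GI50 marks 50% less growth. TGI is the concentration that stops growth completely.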

How the values were obtained:
Assay in all cases: NCI anticancer screen, dose series, 48 h
SR leukemia = system: SR leukemia
PC-3 prostate = system: PC-3 prostate
OVCAR-5 ovarian = system: OVCAR-5 ovarian
TK-10 renal = system: TK-10 renal
MOLT-4 leukemia = system: MOLT-4 leukemia
EKVX NSCLC = system: EKVX NSCLC
RPMI-8226 leukemia = system: RPMI-8226 leukemia
ACHN renal = system: ACHN renal
SW-620 colon = system: SW-620 colon
MCF7 breast = system: MCF7 breast
A498 renal = system: A498 renal

Row | SMILES | TGI (SR leukemia) | TGI (PC-3 prostate) | TGI (OVCAR-5 ovarian) | TGI (TK-10 renal) | TGI (MOLT-4 leukemia) | TGI (EKVX NSCLC) | TGI (RPMI-8226 leukemia) | TGI (ACHN renal) | TGI (SW-620 colon) | TGI (MCF7 breast) | TGI (A498 renal) | GI50 (SW-620 colon)
1 | N#Cc1c(-c2ccc(Cl)cc2)c2c(n(C3OC(CO)C(O)C(O)C3O)c1=S)CCCC2 (centres undefined) | > 100 µM | > 100 µM | > 100 µM | > 100 µM | 87.1 µM | > 100 µM | > 100 µM | > 100 µM | > 100 µM | > 100 µM | > 100 µM | –
2 | N[C@@H]1CCN(c2c(F)cc3c(=O)c(C(=O)O)cn4c3c2Oc2c-4ccc3c2ccc2ccccc23)C1 | > 100 µM | > 100 µM | > 100 µM | 40 µM | > 100 µM | > 100 µM | 36.3 µM | 4.25 µM | > 100 µM | 3.34 µM | > 100 µM | –
3 | CNc1ncccc1Nc1cc(=O)n2c3cccnc3n(C)c2c1 | > 100 µM | > 100 µM | > 100 µM | > 100 µM | > 100 µM | > 100 µM | > 100 µM | > 100 µM | > 100 µM | > 100 µM | > 100 µM | –
4 | Cc1cc(C)nc(NS(=O)(=O)c2ccc(Nc3c4ccccc4nc4ccc(C(=O)Nc5ccc(S(N)(=O)=O)cc5)cc34)cc2)n1 | > 100 µM | > 100 µM | > 100 µM | > 100 µM | > 100 µM | > 100 µM | > 100 µM | > 100 µM | > 100 µM | > 100 µM | > 100 µM | –
5 | CC(=O)C(C(c1ccccc1)N1CCOCC1)N1CCOCC1 (centres undefined) | > 100 µM | > 100 µM | > 100 µM | 53.7 µM | > 100 µM | > 100 µM | > 100 µM | > 100 µM | > 100 µM | > 100 µM | > 100 µM | –
6 | COC(=O)C1=C(OC(=O)/C(=C/c2ccccc2)c2ccc(Cl)cc2Cl)C(C(=O)OC)[C@@]2(O)[C@@H](C(=O)OC)[C@H](C)C[C@@H]1[C@@H]2C(=O)OC (some centres undefined) | > 100 µM | > 100 µM | > 100 µM | > 100 µM | > 100 µM | > 100 µM | > 100 µM | > 100 µM | > 100 µM | > 100 µM | > 100 µM | –
7 | Nc1ccccc1CCN1CCN(CCCc2ccccc2)CC1 | > 100 µM | > 100 µM | > 100 µM | > 100 µM | > 100 µM | > 100 µM | 75.5 µM | > 100 µM | > 100 µM | > 100 µM | > 100 µM | –
8 | CCOC(=O)c1sc(=S)n(-c2ccc(Cl)cc2)c1-n1cc(-c2ccccc2)c(C#N)c1N | 46.7 µM | 27 µM | > 100 µM | 24.4 µM | > 100 µM | 94.7 µM | > 100 µM | 40.9 µM | > 100 µM | > 100 µM | 53.9 µM | –
9 | O=C(/C=C/c1ccc(O)c(O)c1)OCC(OC(=O)/C=C/c1ccc(O)c(O)c1)C(=O)O (centres undefined) | > 100 µM | > 100 µM | > 100 µM | > 100 µM | > 100 µM | > 100 µM | > 100 µM | > 100 µM | > 100 µM | > 100 µM | > 100 µM | –
10 | Cc1ccc(C(=O)O)c(/C=C2\Cc3ccc(C)cc3C2=O)c1 | > 100 µM | > 100 µM | > 100 µM | > 100 µM | > 100 µM | > 100 µM | 53.3 µM | > 100 µM | > 100 µM | > 100 µM | > 100 µM | –
11 | CS(=O)(=O)Nc1ccc2ccccc2c1-c1c(NS(C)(=O)=O)ccc2ccccc12 | > 25 µM | > 25 µM | > 25 µM | > 25 µM | > 25 µM | > 25 µM | > 25 µM | > 25 µM | > 25 µM | > 25 µM | > 25 µM | –
12 | N#Cc1ccc(-c2nc3c(N)ncnc3o2)cc1 | > 100 µM | > 100 µM | > 100 µM | > 100 µM | > 100 µM | > 100 µM | > 100 µM | > 100 µM | > 100 µM | > 100 µM | > 100 µM | –
13 | COC1(OC)N=C(N)C2(C#N)C(c3ccccc3)NC3=C(CCC3)C12C#N (centres undefined) | > 100 µM | > 100 µM | > 100 µM | > 100 µM | > 100 µM | > 100 µM | > 100 µM | > 100 µM | > 100 µM | > 100 µM | > 100 µM | –
14 | NC(=Nc1ccccc1Cl)c1ccccc1N | > 100 µM | > 100 µM | > 100 µM | > 100 µM | > 100 µM | > 100 µM | > 100 µM | > 100 µM | > 100 µM | > 100 µM | > 100 µM | –
15 | COc1ccc(CC2COc3cc(OC)cc(OC)c3C2=O)cc1 (centres undefined) | 43.2 µM | > 100 µM | 76.4 µM | 82.3 µM | > 100 µM | 77.8 µM | 40.5 µM | > 100 µM | > 100 µM | > 100 µM | > 100 µM | –
16 | CCOC(=O)/C=C(\C(=O)OCC)n1cc(C)c(=O)n(Cc2cn(CCCCOC(C)=O)nn2)c1=O | 14.5 µM | 36.2 µM | 27.1 µM | 18.5 µM | 11.6 µM | 24.2 µM | 21.7 µM | 11.1 µM | 31.8 µM | 24.8 µM | 33 µM | 5 µM
17 | COc1ccc2c(c1)/C(=C\c1c(Cl)[nH]c3cc(C)c(OC)cc13)C(=O)N2 | 2.58 µM | 8.27 µM | 14.1 µM | 15.9 µM | 13.7 µM | 16.5 µM | 27.6 µM | 17.3 µM | > 40.1 µM | 16.7 µM | 20.2 µM | –
18 | COC(=O)C1Cc2cc3c(cc2C1=O)CCC3 (centres undefined) | > 100 µM | > 100 µM | > 100 µM | > 100 µM | > 100 µM | > 100 µM | > 100 µM | > 100 µM | > 100 µM | > 100 µM | > 100 µM | –
